Measured values taken from patent US20200069592A1, “HSP90 INHIBITOR ORAL FORMULATIONS AND RELATED METHODS” (Samus Therapeutics, Inc., priority 2017, published 2020).

Columns and labels:
[1] = Tolerability (body weight, toxicity, maximum tolerated dose) in the Example 5 rat study; type: in vivo; settings: free base
Experimental: Ninety-four total animals were observed thereafter. The parenteral administration is performed by tail vein injection.

[2] = Plasma pharmacokinetics after single oral dose in ORA-Plus or SyrSpend SF (Example 6), LC-MS/MS; type: in vivo, Sprague Dawley rats; settings: for AUC % Extrap / Cl_F / Vz_F / AUC(0-inf) / AUC(0-t) / Cmax / Tmax / half-life: rat plasma; for % AUC0-last test vs reference: rats, ratio of group averages; for AUC(0-inf) / AUC(0-t) / Cmax / Tmax / half-life: female, rat, plasma, po
[3] = Plasma pharmacokinetics after single PO or IV administration (Example 5), LC-MS/MS; settings: for Tmax / AUC(0-t) / Cmax: female, rat, plasma, free base; for Tmax: Tmax (hr) Mean ± StdDev; for AUC(0-t): AUC0-last (hr*ng/mL) Mean ± StdDev; for Cmax: Cmax (ng/mL) Mean ± StdDev
Experimental: The animals used in this study were female Sprague Dawley Rats physiologically normal. At the time of receipt, mice were 200-225 g in weight. […] Ninety-four total animals were observed thereafter. The parenteral administration is performed by tail vein injection.
Compound 2 was provided in free base form and stored at −20° C., protected from light. Compound 2 was formulated in dosage form immediately prior to use. For oral administration of Compound 2 in ORA-Plus® drinking solution, Compound 2 was suspended in drinking solution ORA-Plus® (Perrigo; Minneapolis, Minn.). First, a mortar and pestle were used to smooth out the Compound 2 powder, then a small amount of ORA-Plus® was added, and next, the mixture was triturated to a thick, smooth paste. The remainder of the ORA-Plus® was added by geometric dilution. The Compound 2 free base and ORA-Plus® mixture was dispensed in a tight, light resistant amber bottle with appropriate labeling. This mixture was shaken well before using, protected from light and kept refrigerated if dosing was delayed. For oral administration of Compound 2 in citric acid buffer with Captisol®, Compound 2 free base powder was dissolved or suspended into 30% Captisol® (Cydex Pharmaceuticals; Lawrence, Kans.) in 60 mM citrate buffer (pH˜4.2) (citric acid and sodium citrate dehydrate (Sigma-Aldrich; St. Louis Mo.)) in sterile water) to each group's working concentration. […] A magnetic stir-bar was used to mix dosing solution, followed by sonication. For intravenous administration, Compound 2 free base powder was dissolved into 15% Captisol® in 5 mM citrate buffer (pH˜4.2) to each group's working concentration. A magnetic stirbar was used to mix dosing solution, followed by sonication. IV dosing solution of Compound 2 free base was filtered with a 0.2 m PVDF filter (Pall Life Sciences; Port Washington, N.Y.) prior to administration.
Dose levels of Compound 1 were based on the free base, not the salt.
Animals were randomized using random equilibration of body weights on Day 1 into one of 19 study groups, as shown in Table 23 (Groups 1-19), with 5 animals in each group, except for the 4 animals in Group 19. Body weights were collected Days 1, 2, 3, and/or 4 to accommodate data collection of staggered groups. Gross observations of body weight were noted during the course of the study.

[4] = G1: free base, 24 mg/kg single oral dose, ORA-plus
[5] = G2: free base, 48 mg/kg single oral dose, ORA-plus, n = 4
[6] = G7: free base, 24 mg/kg single oral dose, SyrSpend, n = 4
[7] = G8: free base, 48 mg/kg single oral dose, SyrSpend
[8] = Sprague Dawley, 24 mg/kg, G1: free base, 24 mg/kg single oral dose, ORA-plus
[9] = Sprague Dawley, 48 mg/kg, G2: free base, 48 mg/kg single oral dose, ORA-plus
[10] = Sprague Dawley, 48 mg/kg, G2: free base, 48 mg/kg single oral dose, ORA-plus, n = 4
[11] = Sprague-Dawley, 24 mg/kg, G7: free base, 24 mg/kg single oral dose, SyrSpend
[12] = Sprague-Dawley, 24 mg/kg, G7: free base, 24 mg/kg single oral dose, SyrSpend, n = 4
[13] = Sprague-Dawley, 48 mg/kg, G8: free base, 48 mg/kg single oral dose, SyrSpend
[14] = 24 mg/kg PO, Group 1 (ORA-plus) relative to Group 5 (citrate buffer-Captisol)
[15] = 36 mg/kg PO, Group 2 (ORA-plus) relative to Group 6 (citrate buffer-Captisol)
[16] = 48 mg/kg PO, Group 3 (ORA-plus) relative to Group 7 (citrate buffer-Captisol)
[17] = 60 mg/kg PO, Group 4 (ORA-plus) relative to Group 8 (citrate buffer-Captisol)
[18] = Sprague Dawley, po, 24 mg/kg, Group 5: 24 mg/kg PO, 60 mM Citric acid buffer + 30% Captisol
[19] = Sprague Dawley, po, 36 mg/kg, Group 2: 36 mg/kg PO, ORA-Plus
[20] = Sprague Dawley, po, 36 mg/kg, Group 6: 36 mg/kg PO, 60 mM Citric acid buffer + 30% Captisol
[21] = Sprague Dawley, po, 48 mg/kg, Group 3: 48 mg/kg PO, ORA-Plus
[22] = Sprague Dawley, po, 48 mg/kg, Group 7: 48 mg/kg PO, 60 mM Citric acid buffer + 30% Captisol
[23] = Sprague Dawley, po, 60 mg/kg, Group 4: 60 mg/kg PO, ORA-Plus
[24] = Sprague Dawley, po, 60 mg/kg, Group 8: 60 mg/kg PO, 60 mM Citric acid buffer + 30% Captisol
[25] = Sprague-Dawley, iv, 12 mg/kg, Group 9: 12 mg/kg IV, 5 mM Citric acid buffer + 15% Captisol
[26] = Sprague-Dawley, iv, 24 mg/kg, Group 10: 24 mg/kg IV, 5 mM Citric acid buffer + 15% Captisol
[27] = Sprague-Dawley, po, 24 mg/kg, Group 1: 24 mg/kg PO, ORA-Plus, single dose

SMILES: CC(C)(C)CNCCn1c(Sc2cc3c(cc2I)OCO3)nc2c(N)ncnc21 [Compound 2]
- MTD ([1]; female, Sprague Dawley, rat, in vivo, iv, intravenously administered, rats, read-out: Maximum tolerated dose): 24 mg/kg
- Body weight and toxicity ([1]; higher oral doses (above 24 mg/kg), data not shown): minimal effects on body weight and limited toxicity
- AUC % Extrap [2, 4]: 2.77 ± 0.30%
- Cl_F [2, 4]: 249.8 ± 24.2 mL/min/kg
- Vz_F [2, 4]: 50.18 ± 39.85 L/kg
- AUC % Extrap [2, 5]: 6.22 ± 6.79 %
- Cl_F [2, 5]: 177.2 ± 65.5 mL/min/kg
- Vz_F [2, 5]: 38.84 ± 10.64 L/kg
- AUC % Extrap [2, 6]: 6.89 ± 3.49 %
- Cl_F [2, 6]: 369.7 ± 105 mL/min/kg
- Vz_F [2, 6]: 88.96 ± 44.19 L/kg
- AUC % Extrap [2, 7]: 1.71 ± 1.37%
- Cl_F [2, 7]: 136 ± 105 mL/min/kg
- Vz_F [2, 7]: 44.20 ± 37.62 L/kg
- % AUC0-last test vs reference ([2]; Group 1 (24 mg/kg FB ORA-plus) vs Group 3 (24 mg/kg 2HCl ORA-plus)): 121.69%
- % AUC0-last test vs reference ([2]; Group 1 (24 mg/kg FB ORA-plus) vs Group 4 (48 mg/kg 2HCl ORA-plus)): 24.79%
- % AUC0-last test vs reference ([2]; Group 1 (24 mg/kg FB ORA-plus) vs Group 7 (24 mg/kg FB SyrSpend)): 123.40%
- % AUC0-last test vs reference ([2]; Group 1 (24 mg/kg FB ORA-plus) vs Group 9 (24 mg/kg 2HCl SyrSpend)): 133.31%
- % AUC0-last test vs reference ([2]; Group 2 (48 mg/kg FB ORA-plus) vs Group 4 (48 mg/kg 2HCl ORA-plus)): 70.46%
- % AUC0-last test vs reference ([2]; Group 2 (48 mg/kg FB ORA-plus) vs Group 8 (48 mg/kg FB SyrSpend)): 54.72%
- % AUC0-last test vs reference ([2]; Group 2 (48 mg/kg FB ORA-plus) vs Group 10 (48 mg/kg 2HCl SyrSpend)): 51.93%
- % AUC0-last test vs reference ([2]; Group 7 (24 mg/kg FB SyrSpend) vs Group 9 (24 mg/kg 2HCl SyrSpend)): 108.03%
- % AUC0-last test vs reference ([2]; Group 8 (48 mg/kg FB SyrSpend) vs Group 10 (48 mg/kg 2HCl SyrSpend)): 94.91%
- AUC(0-inf) [2, 8]: 1610 ± 156 ng·h/mL
- AUC(0-t) [2, 8]: 1570 ± 152 ng·h/mL
- Cmax [2, 8]: 579 ± 108 ng/mL
- Tmax [2, 8]: 1.4 ± 0.55 h
- half-life [2, 8]: 2.36 ± 1.98 h
- AUC(0-t) [2, 9]: 4460 ± 2110 ng·h/mL
- Cmax [2, 9]: 803 ± 278 ng/mL
- Tmax [2, 9]: 2.8 ± 1.64 h
- AUC(0-inf) [2, 10]: 5060 ± 2070 ng·h/mL
- half-life [2, 10]: 2.61 ± 0.44 h
- AUC(0-t) [2, 11]: 1270 ± 524 ng·h/mL
- Cmax [2, 11]: 371 ± 196 ng/mL
- Tmax [2, 11]: 1 h
- AUC(0-inf) [2, 12]: 1180 ± 451 ng·h/mL
- half-life [2, 12]: 2.78 ± 1.13 h
- AUC(0-inf) [2, 13]: 8080 ± 4090 ng·h/mL
- AUC(0-t) [2, 13]: 8140 ± 3550 ng·h/mL
- Cmax [2, 13]: 1030 ± 421 ng/mL
- Tmax [2, 13]: 3.4 ± 1.95 h
- half-life [2, 13]: 3.56 ± 1.03 h
- Time point up to which all animals had quantifiable plasma levels ([2]; single oral dose, free base or 2HCl, ORA-Plus or SyrSpend): ≥ 8 h
- % AUC0-last (hr*ng/mL) ORA vs Citrate Mean ± StdDev [3, 14]: 48.63 ± 15.03%
- % Cmax (ng/mL) ORA vs Citrate Mean ± StdDev [3, 14]: 47.65 ± 16.52%
- % AUC0-last (hr*ng/mL) ORA vs Citrate Mean ± StdDev [3, 15]: 91.18 +/− 72.46%
- % Cmax (ng/mL) ORA vs Citrate Mean ± StdDev [3, 15]: 89.97 +/− 82.63%
- % AUC0-last (hr*ng/mL) ORA vs Citrate Mean ± StdDev [3, 16]: 94.75 +/− 64.83%
- % Cmax (ng/mL) ORA vs Citrate Mean ± StdDev [3, 16]: 99.04 +/− 80.01%
- % AUC0-last (hr*ng/mL) ORA vs Citrate Mean ± StdDev [3, 17]: 75.93 +/− 63.12%
- % Cmax (ng/mL) ORA vs Citrate Mean ± StdDev [3, 17]: 83.99 +/− 73.13%
- Tmax ([3]; Sprague Dawley, iv, 12 mg/kg, Group 9: 12 mg/kg IV, 5 mM Citric acid buffer + 15% Captisol): 0.25 h
- AUC(0-t) [3, 18]: 2010 ± 176 ng·h/mL
- Cmax [3, 18]: 685 ± 109 ng/mL
- Tmax [3, 18]: 1.8 ± 0.45 h
- AUC(0-t) [3, 19]: 2680 ± 811 ng·h/mL
- AUC(0-t) [3, 20]: 2940 ± 1570 ng·h/mL
- Cmax [3, 19]: 747 ± 238 ng/mL
- Cmax [3, 20]: 831 ± 618 ng/mL
- Tmax [3, 19]: 1.5 ± 1.41 h
- Tmax [3, 20]: 2.4 ± 2.07 h
- AUC(0-t) [3, 21]: 5220 ± 2760 ng·h/mL
- AUC(0-t) [3, 22]: 5510 ± 2590 ng·h/mL
- Cmax [3, 21]: 1240 ± 519 ng/mL
- Cmax [3, 22]: 1400 ± 626 ng/mL
- Tmax [3, 21]: 2.7 ± 1.79 h
- Tmax [3, 22]: 1.4 ± 0.55 h
- AUC(0-t) [3, 23]: 3560 ± 906 ng·h/mL
- AUC(0-t) [3, 24]: 4750 ± 3070 ng·h/mL
- Cmax [3, 23]: 909 ± 302 ng/mL
- Cmax [3, 24]: 1080 ± 584 ng/mL
- Tmax [3, 23]: 3 ± 2.74 h
- Tmax [3, 24]: 4.4 ± 1.67 h
- AUC(0-t) [3, 25]: 3390 ± 402 ng·h/mL
- Cmax [3, 25]: 2360 ± 92.7 ng/mL
- AUC(0-t) [3, 26]: 7500 ± 552 ng·h/mL
- Cmax [3, 26]: 5110 ± 416 ng/mL
- Tmax [3, 26]: 0.25 h
- AUC(0-t) [3, 27]: 975 ± 304 ng·h/mL
- Cmax [3, 27]: 321 ± 111 ng/mL
- Tmax [3, 27]: 0.9 ± 0.22 h
